How the values were obtained:
[1] = test system: monocyte-derived dendritic cells; assay: Effect of compounds on tryptophan catabolism in monocyte-derived dendritic cells (kynurenine production); type: cell-based; settings: Homo sapiens, Dendritic cell; dendritic cells triggered with LPS and IFNγ, 24 h with compound
Description: (§1) Peripheral blood mononuclear cells are isolated from buffy coats from healthy volunteers by Lymphoprep density gradient centrifugation, followed by lysis of residual erythrocytes with isotonic buffer solution of ammonium chloride. CD14+ cells are isolated by positive selection using MACS® technology and CD14 MicroBeads (Miltenyi Biotec) according to manufacturer's instructions. The isolated monocytes are differentiated into dendritic cells by incubation for 5 days in RPMI-1640 medium supplemented with 10% fetal bovine serum (FBS), 50 ng/mL GM-CSF and 35 ng/mL IL-4. After 5 days the DCs are seeded in 96-well plates in DMEM supplemented with 10% charcoal stripped FBS, GM-CSF and IL-4. The following day cells are triggered with LPS and IFNγ. After 24 h of incubation medium is replaced with DMEM F-12 medium supplemented with 6 mg/mL L-tryptophan and 10% charcoal stripped FBS. Compounds are added to the cells and incubated for 24 h at 37° C., 5% CO2, 95% humidity. Compounds are tested at 7 consecutive 4-fold dilutions starting from 30 μM in duplicate.
(§2) At the end of incubation concentration of kynurenine in cell supernatants is determined by LC-MS/MS. In parallel, cell viability is assessed by measurement of ATP by use of CellTiter Glo assay (Promega) according to manufacturer's protocol.
Inhibition of Kyn production is calculated using the following formula:
(1−(Kyn conc. cmpd.−Kyn conc. medium)/(Kyn conc. medium with cells−Kyn conc. medium))·100
IC50 values are determined using GraphPad Prism software 5.04 for Windows, by plotting percent of inhibition against log 10 concentrations of compounds using a four-parametric sigmoidal curve with a variable slope.

[2] = molecular target: T1, TDO2 enzyme (Homo sapiens, UniProt P48775); assay: TDO2 enzyme inhibition assay (hTDO2 assay kit, NFK-green); settings: TDO2 enzyme 50 nM, tryptophan 200 μM, top concentration 30 μM; read-out: TDO2 Biochemical assay IC50
T1 construct: purchased Netherlands Translational Research Center B.V. NTRC-hTDO-1K
T1 sequence (P48775 whole entry): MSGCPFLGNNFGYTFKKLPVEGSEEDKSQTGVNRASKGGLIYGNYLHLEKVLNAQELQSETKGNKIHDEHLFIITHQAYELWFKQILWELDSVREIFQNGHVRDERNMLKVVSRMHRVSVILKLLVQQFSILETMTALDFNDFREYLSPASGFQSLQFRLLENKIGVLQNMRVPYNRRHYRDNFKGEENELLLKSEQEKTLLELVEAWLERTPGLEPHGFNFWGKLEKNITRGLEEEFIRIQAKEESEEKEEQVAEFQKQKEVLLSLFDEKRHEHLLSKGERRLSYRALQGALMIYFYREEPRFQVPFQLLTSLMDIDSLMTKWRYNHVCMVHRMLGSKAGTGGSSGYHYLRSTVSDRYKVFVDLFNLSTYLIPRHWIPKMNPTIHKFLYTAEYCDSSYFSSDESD
Description: The effect of compounds on TDO2 enzymatic activity was assess by use of an hTDO2 assay kit (Netherlands Translational Research Center B.V., Cat #NTRC-hTDO-1K). TDO2 enzyme and tryptophan substrate are diluted in assay buffer. Compounds are tested at 8 consecutive 3-fold dilutions starting from 30 μM. 267 nL of compound is added per well of a 384-well plate followed by addition of 10 μL of assay buffer. TDO2 enzyme is added at a final concentration of 50 nM and pre-incubated for 60 min at room temperature in the dark. Tryptophan substrate solution is then added at final concentration of 200 μM to all wells and the plate incubated for 15 min at RT in the dark. Finally NFK-green reagent is added at ⅕ of total reaction volume and incubated for 4 h at RT in the dark. After incubation fluorescence is measured at Ex405 nm-Em535 nm using EnVision plate reader.
(§3) IC50 values are determined using GraphPad Prism software 5.04 for Windows by plotting percent of inhibition against log 10 concentrations of compounds using a four-parametric sigmoidal curve with a variable slope.

[3] = test system: monocyte-derived dendritic cells; assay: Cell viability / cytotoxicity in monocyte-derived dendritic cells (ATP, CellTiter Glo); type: cell-based, human; settings: 24 h, unit assumed
Description: as §1, §2
Cell viability results are analysed in Microsoft Excel and expressed as fold change over untreated control.

[4] = test system: SK-OV-3 cells; assay: Effect of compounds on tryptophan catabolism in SK-OV-3 cell line (inhibition of kynurenine production, LC-MS/MS); type: cell-based; settings: for IC50: Homo sapiens, SK-OV-3, 24 h, SK-OV-3 cell line, 24 h incubation, kynurenine in supernatant by LC-MS/MS, read-out: IC50 Ranges (ic50 values for inhibition of Kynurenine production)
Method in brief: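 Cells seeded overnight in McCoy's 5A/10% FBS, then switched to DMEM F-12 with 6 mg/mL L-tryptophan; compounds added at 8 3-fold dilutions from 30 μM, in duplicate, 24 h at 37 °C. Supernatant kynurenine measured by LC-MS/MS; ATP-based viability run in parallel; IC50 from % inhibition of Kyn production.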

[5] = molecular target: T2, IDO1 enzyme (Homo sapiens, UniProt P14902); assay: IDO1 enzyme inhibition assay (hIDO assay kit, NFK-green); settings: IDO1 enzyme 25 nM, tryptophan 100 μM, top concentration 30 μM; read-out: IDO1 Biochemical assay IC50
T2 construct: purchased Netherlands Translational Research Center B.V. NTRC-hIDO-1K
T2 sequence (P14902 whole entry): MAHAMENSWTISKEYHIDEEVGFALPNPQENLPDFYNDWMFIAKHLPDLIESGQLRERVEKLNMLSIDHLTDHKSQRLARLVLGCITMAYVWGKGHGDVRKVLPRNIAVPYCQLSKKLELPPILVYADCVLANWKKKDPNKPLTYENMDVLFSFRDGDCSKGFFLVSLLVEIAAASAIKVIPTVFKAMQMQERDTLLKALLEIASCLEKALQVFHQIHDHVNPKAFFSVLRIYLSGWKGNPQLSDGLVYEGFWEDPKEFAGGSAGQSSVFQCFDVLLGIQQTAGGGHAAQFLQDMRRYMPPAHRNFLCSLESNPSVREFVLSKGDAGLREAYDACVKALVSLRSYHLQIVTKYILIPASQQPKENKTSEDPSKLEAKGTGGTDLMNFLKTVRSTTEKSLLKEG
Description: The effect of compounds on IDO1 enzymatic activity was assessed by use of a hIDO assay kit (Netherlands Translational Research Center B.V., Cat #NTRC-hIDO-1K). IDO1 enzyme and tryptophan substrate are diluted in assay buffer. Compounds are tested at 8 consecutive 3-fold dilutions starting from 30 μM. 267 nL of compound is added per well of a 384-well plate followed by addition of 10 μL of assay buffer. IDO1 enzyme is added at a final concentration of 25 nM and pre-incubated for 30 min at room temperature in the dark. Tryptophan substrate solution is then added at final concentration of 100 μM to all wells and the plate incubated for 60 min at RT in the dark. Finally NFK-green reagent is added at ⅕ of total reaction volume and incubated for 4 h at RT in the dark. After incubation fluorescence is measured at Ex405 nm-Em535 nm using EnVision plate reader.
as §3

[6] = test system: IDO1 protein in SK-OV-3 cells; assay: Effect of compounds on IDO1 expression in SK-OV-3 cell line (Western analysis, normalised to GAPDH); type: cell-based; settings: 24 hours exposure
Description: SK-OV-3 cells are seeded in 24-well plates in McCoy's 5A medium supplemented with 10% FBS at density of 250000 cells per well and incubated overnight at 37° C., 5% CO2, 95% humidity. The following day growth medium is replaced with DMEM F-12 medium containing 6 mg/mL L-tryptophan. Compounds are added to the wells and the plate is incubated for 24 h at 37° C., 5% CO2, 95% humidity. At the end of incubation medium is removed, cells are washed and then lysed in RIPA buffer. Protein concentrations in the samples are determined using BCA method (Thermo Scientific) and adjusted to 0.5 mg/mL. Western analysis is performed on the Wes system (Protein Simple) using IDO1 (Cell Signalling; Cat #12006S) and GAPDH (Abcam, Cat #ab9485) antibodies. Expression of IDO1 is normalised to GAPDH.

SMILES | IC50 [1] [nM] | IC50 [2] [nM] | Cell viability at 30 uM (% of untreated control) [3] [%] | IC50 [4] [nM] | IC50 [5] [nM] | reduction in IDO1 protein in SKOV-3 cells (FIG. 1a) [6] | inhibition of kynurenine production by SKOV-3 (FIG. 1b) ([4]; SKOV-3 cells, 24 hours exposure)
O=C(Nc1ccc(Cl)cc1)N(Cc1cccc(C(F)(F)F)c1)C1CCC1 [Compound 90, 3-(4-chlorophenyl)-1-cyclobutyl-1-[[3-(trifluoromethyl)-phenyl]methyl]urea] | 66 | > 30000 | 67 | < 100 | – | – | –
Cc1ccc(CN(C(=O)Nc2ccc(C#N)cc2)C2CCCC2)o1 [Compound 80, 3-(4-cyanophenyl)-1-cyclopentyl-1-[(5-methyl-2-furyl)methyl]urea] | 26 | > 30000 | 112 | < 100 | > 30000 | – | –
Cc1ccc(CN(C(=O)Nc2ccc(Cl)cc2)C2CCC2)o1 [Compound 83, 3-(4-chlorophenyl)-1-cyclobutyl-1-[(5-methyl-2-furyl)methyl]urea] | 130 | > 30000 | 89 | < 100 | > 30000 | – | –
Cc1ccc(CN(C(=O)Nc2ccc(Cl)cc2)C2CCCC2)o1 [Compound 137, 3-(4-chlorophenyl)-1-cyclopentyl-1-[(5-methyl-2-furyl)methyl]urea] | 40 | > 30000 | 88 | < 100 | > 30000 | – | –
C#Cc1ccc(NC(=O)N(Cc2ccc(C)o2)C2CCCC2)cc1 [Compound 102, 1-cyclopentyl-3-(4-ethynylphenyl)-1-[(5-methyl-2-furyl)methyl]urea] | – | > 30000 | – | < 100 | – | dose-dependent reduction in IDO1 protein | dose-dependent inhibition of kynurenine production
Cc1ncc(CN(C(=O)Nc2ccc(Cl)cc2)C2CCCC2)o1 [Compound 144, 3-(4-chlorophenyl)-1-cyclopentyl-1-[(2-methyloxazol-5-yl)methyl]urea] | 380 | > 30000 | 109 | 100 to 500 | > 30000 | – | –
N#Cc1ccc(NC(=O)N(Cc2cccc(C(F)(F)F)c2)C2CCC2)cc1 [Compound 91, 3-(4-cyanophenyl)-1-cyclobutyl-1-[[3-(trifluoromethyl)phenyl]methyl]urea] | 36 | – | 71 | < 100 | – | – | –
O=C(Nc1ccc(Cl)cc1)N(Cc1cccs1)C1CCCC1 [Compound 56, 3-(4-chlorophenyl)-1-cyclopentyl-1-(2-thienylmethyl)urea] | 250 | – | 94 | < 100 | – | – | –
O=C(Nc1ccc(Cl)cc1)N(Cc1ccnc(C(F)(F)F)c1)C1CCCC1 [Compound 148, 3-(4-chlorophenyl)-1-cyclopentyl-1-[[2-(trifluoromethyl)-4-pyridyl]methyl]urea] | 150 | – | 103 | < 100 | – | – | –
O=C(Nc1ccc(F)c(F)c1)N(Cc1cccc(C(F)(F)F)c1)C1CCCC1 [Compound 140, 1-cyclopentyl-3-(3,4-difluorophenyl)-1-[[3(trifluoromethyl)phenyl]methyl]urea] | 320 | – | 92 | < 100 | – | – | –
Cc1ccc(CN(C(=O)Nc2ccc(F)cc2)C2CCC2)o1 [Compound 82, 1-cyclobutyl-3-(4-fluorophenyl)-1-[(5-methyl-2-furyl)methyl]urea] | 300 | – | 85 | 100 to 500 | – | – | –
N#Cc1ccc(NC(=O)N(Cc2cccc(C(F)(F)F)c2)C2CCCC2)cc1 [Compound 89, 3-(4-cyanophenyl)-1-cyclopentyl-1-[[3-(trifluoromethyl)phenyl]methyl]urea] | 65 | – | 81 | < 100 | – | – | –
N#Cc1cccc(CN(C(=O)Nc2ccc(Cl)cc2)C2CCCC2)c1 [Compound 147, 3-(4-chlorophenyl)-1-[(3-cyanophenyl)methyl]-1-cyclopentyl-urea] | 70 | > 30000 | 122 | < 100 | – | – | –
O=C(Nc1ccc(F)c(F)c1)N(Cc1ccc(F)c(OC(F)(F)F)c1)C1CCCC1 [Compound 141, 1-cyclopentyl-3-(3,4-difluorophenyl)-1-[[4-fluoro-3 (trifluoromethoxy)phenyl]methyl]urea] | 470 | – | 90 | < 100 | – | – | –
